# Measurements published in patent publication US7838122B2, “Hydrazide compounds with angiogenic activity” (Rutgers, the State University of New Jersey, priority 2003, dated 2010).
# Legend:
# [1] = tested on: Human aortic endothelial cells (HAEC); assay: In vitro endothelial cell migration assay (transwell microchemotaxis chamber); assay type: cell-based
# Procedure: Endothelial cells were known to respond to angiogenic factors which cause motility and mitosis, and ultimately the release of growth factors from the cells. Human aortic endothelial cells (HAEC) were cultured at passage 8 and maintained and fed with MCDB 131 media with EGM-2 (Clonetics) until the day of the experiment. Cultures were maintained at 37° C., 5% CO2 and 100% humidity. Comparisons were made of PEG-di-DT Hydrazide activity versus basic FGF-β. The PEG-di-DT hydrazide and basic FGF-β were dissolved in MCDB 131 media. Basic FGF-β was used as a positive control due to its well documented angiogenic activity and extensive testing. Dose-response curves were obtained for PEG-di-DT Hydrazide and basic FGF-β. PEG-dihydrazide, DT monomer, and PEG (Mw=2000), were prepared in MCDB 131 media according to Table 2, and were also tested. Migration assays were performed in a 24-well microchemotaxis chamber (Co-Star) containing transwells of untreated polycarbonate membranes with 8 μm pores. Both the transwells and well bottoms were coated overnight with a 10 μg/mL fibronectin solution (Calbiochem). HAE cells were harvested and resuspended at a concentration of 4.5×10^5 cells/0.1 mL in the corresponding medium. Media was also tested to determine baseline chemotaxis. The bottom wells were filled with 500 μL of test solution, and the transwells were seeded with […] and incubated for 6 hours at 37° C. The cells that migrated through the membrane were quantitated by counting the whole area of the filter using a grid and a (Olympus) microscope at 40× or 20× magnification.
# [2] = Scaffold degradation study in SBF at 37° C. (HPLC, TGA, gravimetry)
# Procedure: To determine degradation products of porous scaffolds (compositions used: 100/80, 50/40 and 25/20), hydrogel disks of various compositions samples were incubated at 37° C. in SBF at a constant weight to volume ratio of 5 mg/mL, maintaining a constant surface area to volume ratio. Over a one-week period, aliquots were removed and analyzed by HPLC. Buffer solutions were changed every two weeks to maintain sink conditions. Samples were analyzed over a 6-month period for degradation products in the buffer by HPLC, for water uptake by TGA, and mass loss by gravimetry. Aliquots of the degradation media were analyzed by HPLC. The HPLC system consisted of a reversed-phase (C18) column (Perkin-Elmer, Norwalk, Calif.), an LC pump (Model 410; Perkin-Elmer), a UV array detector at 220 nm (Model 235 Perkin-Elmer), an autoinjector (Model ISS-100; Perkin-Elmer), and a computerized data station (Turbochrom; Perking Elmer). A gradient system of water:acetonitrile was used as an eluent to capture each degradation product. Degradation was monitored using DT and DTE standards, and quantitation of degradation products was determined from the area under the signal peaks in the chromatogram after correlating to the standards. […] Mass loss was calculated as the % ratio of weight lost over initial weight. […]
# [3] = tested on: Rat lung fibroblasts (RLF-6); assay: Cytotoxicity, CellTiter96 Aqueous One Solution Cell Proliferation Assay; settings: RFL-6 cells; serial dilutions 200 to 7.8 mg/mL in SBF; read at 490 nm
# Procedure: In vitro biocompatibility studies of PEG-di-DT hydrazide were assessed by analyzing cytotoxicity. […] The CellTiter96® Aqueous One Solution Cell Proliferation Assay (Promega, Madison, Wis.) was used to determine cytotoxicity. Plates were read on a PowerWavex absorbance plate reader, (Bio-Tek Instrumentation, Inc., Highland Park, Vt.).
# Cell toxicity studies were carried out in 96-well plates made of tissue-cultured polystyrene, and ˜3×10^3 cells were seeded in each well. Serial dilutions of PEG-di-DT hydrazide were prepared in concentrations ranging from 200 mg/mL to 7.8 mg/mL using SBF as the diluent. Volume of media was kept constant to prevent nutritional advantages. Filter-sterilized dilutions (n=6) were plated in a 96 well plate and controls of media+cells+diluent (to account for affects of the diluent), and media+cells (optimal cell culture conditions) were employed. […] The plates were incubated for 2 hours and read at 490 nm on an absorbance plate reader. Data were analyzed using a two-tailed Student t-test, establishing statistical significance at p<0.05 when compared to cells grown in the cell+media+diluent control.
compound,measurement,setting,value
"FGF-β: growth factor, known angiogenic substance used as positive control",dose dependence of cell migration,[1]; FIG. 7 / FIG. 8,dose dependent manner
same,minimum effective concentration (cell migration),"[1]; HAEC, 6 hours, FIG. 6",0.01 µg/mL
same,cell migration response versus media alone,[1]; all concentrations tested,higher cell migration response than the media alone
"CCOC(=O)[C@H](Cc1ccc(O)cc1)NC(=O)CCc1ccc(O)cc1 [DTE, desaminotyrosyl-tyrosine ethyl ester]",time by which degradation product was undetectable by HPLC,"[2]; degradation media of hydrogels, SBF, 37° C.",≤ 12 weeks
"O=C(CCc1ccc(O)cc1)N[C@@H](Cc1ccc(O)cc1)C(=O)O [DT, desaminotyrosyl-tyrosine free carboxylic acid]",presence of degradation product during degradation,"[2]; HPLC, 6-month study",continued to remain during the course of degradation
same,cell migration,"[1]; HAEC, 6 hours at 37° C.",Neither PEG 2000 nor DT solutions caused cell migration to occur
"CC(O)C(=O)[O-].[Na+] (stereo not shown) [Sodium Lactate, sodium lactate]",Results of the Cytotoxicity Assay,[3],3 mg/mL
